Reference: patent US20060040951A1, “Use of 5-ht2 receptor antagonists for the treatment of sleep disorders” (Merck Patent GmbH, priority 2002, published 2006)

What was measured:
[1] = cited from earlier work
rats [2] = assay: Example B: EEG sleep-stage recording of non-anaesthetised rats over 12 hours, crossover study versus vehicle; type: in vivo, rat
Description: In order to measure the brain waves, EEG electrodes are implanted into the brain of anaesthetised rats. After a recovery time of 15 days, these electrodes are connected to an amplifier via a flexible cable, and the brain waves of the non-anaesthetised animals are recorded over 12 hours. (3-Cyano-1H-indol-7-yl)-[4-(4-fluorophenethyl)piperazin-1-yl]methanone is dissolved in advance in a concentration of 0.1 ml/100 g of peanut oil. This solution (compound) or, for comparison, merely the solvent (vehicle) is administered orally to the test animals in a dose of 3 mg/kg. From the filtered and amplified brain-wave signals, the sleep stages are evaluated via Fourier spectral analysis including certain criteria. The REM and non-REM sleep stages can be identified with reference to the patterns. The experimental results are shown in Tables 1 (effect of the substance) and 2 (significances of the measurement values). It becomes clear that (3-cyano-1H-indol-7-yl)-[4-(4-fluorophenethyl)piperazin-1-yl]methanone results in a significant extension both of non-REM sleep and of REM sleep and that these extensions are significant.
This experiment is a crossover study. This means that one and the same animal receives either first solvent (vehicle) and then, after a waiting time of one week, the test substance (3-cyano-1H-indol-7-yl)-[4-(4-fluorophenethyl)piperazin-1-yl]methanone (compound), or the administration is carried out in the reverse sequence.
The measured values after vehicle or compound administration are compared with one another using the statistical method of analysis of variance (ANOVA). The p value is a statistical measure of the probability that a difference occurs by chance between the measurement values or is caused by the substance administration. According to international standards, a p value of below 0.05 is regarded as “significant”.
It is clear from FIG. 1 that in particular stages 3 and 4, which are regarded as slow-wave sleep, are extended in non-REM sleep. […] The term delta power or delta waves denotes the “slow” waves recorded in the EEG which are characteristic of slow-wave sleep stages. For each rat, the hour average after solvent (vehicle) treatment was firstly determined and subtracted from the value after substance treatment.

rats [3] = assay: Brain-wave (EEG) recording of rats over 6 hours during the dark phase; type: in vivo, rat
[4] = rats, 3 mg/kg orally in peanut oil, 12 h recording, average ± standard error
[5] = rats, 3 mg/kg orally, 12 h recording, average ± standard error
[6] = 3 mg/kg per os, 6 h recording during dark phase

CCc1nn(CCCN2CCN(c3cccc(Cl)c3)CC2)c(=O)n1CCOc1ccccc1 [nefazodone]
effect on REM sleep ([1]; literature report): extend REM sleep | effect on slow-wave phases 3 and 4 of non-REM sleep ([1]; literature report): remain unchanged

N#Cc1c[nH]c2c(C(=O)N3CCN(CCc4ccc(F)cc4)CC3)cccc12 [(3-cyano-1H-indol-7-yl)-[4-(4-fluorophenethyl)piperazin-1-yl]methanone]
relative delta power in the rat EEG, difference from the control level (rats [2]; FIG. 1, as a function of the time of day): significantly increased overall | NREM sleep Total Time (rats [2]; [4]): 232.8 ± 13.1 min | REM sleep Total Time (rats [2]; [4]): 45.3 ± 3.8 min | Wakefulness Total Time (rats [2]; [4]): 440.6 ± 15.1 min | Inter-REM interval (rats [2]; [5]): 28.8 ± 3.0 min | NREM sleep Episode Duration (rats [2]; [5]): 184.8 ± 9.5 s | REM Latency (rats [2]; [5]): 5.2 ± 0.3 min | REM sleep Episode Duration (rats [2]; [5]): 93.1 ± 6.6 s | Wakefulness Episode Duration (rats [2]; [5]): 422.5 ± 29.3 s | average increase in non-REM sleep (rats [3]; [6]): about 4 min/h | maximum increase in non-REM sleep (rats [3]; [6]): about 5 minutes per hour | extension of REM sleep, average (rats [3]; 6 h dark phase): 0.8 min/h | extension of REM sleep, maximum (rats [3]; 6 h dark phase): 2 min/h | what the change in REM sleep results from (rats [3]; 6 h dark phase): increase in the number of REM episodes

Cc1nnc2n1-c1ccc(Cl)cc1C(c1ccccc1Cl)=NC2 [triazolam, reference compound]
what the change in REM sleep results from (rats [3]; 6 h dark phase): reduction in the duration of the individual REM phases | extension of non-REM sleep (rats [3]; dose 0.1 mg/kg, 6 h dark phase): 2 min/h | extension of non-REM sleep (maximum effect) (rats [3]; dose 0.4 mg/kg, 6 h dark phase): 6.5 min/h

O=C1CCC(N2C(=O)c3ccccc3C2=O)C(=O)N1 (centres unmarked) [thalidomide]
effect on both sleep phases ([1]; known sleeping drug): extends both sleep phases
